Here are results for 71 compounds from ChEMBL document CHEMBL3507680, “University of Dundee, Gates Library screen for HepG2 cell viability”.

This data set is described as follows: Human HepG2 cell viability assay in 384 well format. It counts as toxicity, cell-based. Set-up: dose 125 nL, time 70.5 hour; concentration not given beside the values. The following applies: HepG2 cells, read-out: Inhibition.
For the compound `CN(C)[C@H]1CCCCN(C(=O)COCc2nc3cc(F)ccc3[nH]2)C1`, the cytotoxicity at 70.5 h was 15%. Turning to `CC(C)n1cnnc1CN1C(=O)CCc2ccccc21`, the cytotoxicity at 70.5 h is -1.8%. Regarding `CC(C)c1nc(O)c2nnn(C[C@@H]3CCCN(Cc4ccsc4)C3)c2n1`, the cytotoxicity at 70.5 h was -2.22%. For `NC(=O)Nc1cccc(C(=O)N(Cc2ccc(F)cc2)C2CC2)c1` the value was -14.8%; for `Cn1cc(NS(=O)(=O)c2ccc3c(c2)CCCC3)ccc1=O`, 22.1%; for `Nc1nc2c(c(N3CCC(CCn4cccn4)CC3)n1)CCNCC2`, -5.53%. For the compound `Cn1ccnc1CN1CCC2(CC1)CC(NC(=O)c1ccccn1)CO2` (stereo unspecified), the cytotoxicity at 70.5 h stood at 8.41%. Consider `N#Cc1ccc(CN2CCCN(CCCn3cncn3)CC2)cc1`, for which the cytotoxicity at 70.5 h was determined as 3.01%. Regarding `CSCc1ccc(CNC2CCCN(c3ccc(C)nn3)C2)o1` (stereo unspecified), the cytotoxicity at 70.5 h is -9.42%. For `Cn1cnc(S(=O)(=O)N2CCN(Cc3ccco3)CC2)c1Cl`, the cytotoxicity at 70.5 h stood at 2.09%. For `Cc1cc(NCCc2c[nH]cn2)nc(-c2cccnc2)n1`, the cytotoxicity at 70.5 h is -6.06%. Consider `CS(=O)(=O)c1cnc(C2CCCC2)nc1C1CCCNC1` (stereo unspecified), for which the cytotoxicity at 70.5 h worked out at 1.49%.

With `COC(=O)c1ccc(Cn2nc(C)cc2C)c(F)c1`, the cytotoxicity at 70.5 h is -4.1%.

In the case of `O=C(O)[C@@H]1CN(C(=O)CCc2ccccn2)C[C@H]1c1ccccc1`, the cytotoxicity at 70.5 h was -4.59%. As to `CCCn1nc(C2CCNCC2)n(Cc2ccccc2)c1=O`, the cytotoxicity at 70.5 h was -7.28%. With `CCOc1ccc(-c2ccc3c(c2)OCO3)cc1C(N)=O`, the cytotoxicity at 70.5 h amounted to 5.58%. On to `O=C1C(NCc2nnc3n2CCCC3)CCN1c1ccccc1F` (stereo unspecified), for which the cytotoxicity at 70.5 h is -20.6%.

In the case of `CC(C)C(=O)NC1CCN(c2cccc(OC(F)(F)F)c2)C1=O` (stereo unspecified), the cytotoxicity at 70.5 h was determined as 8.86%.

With `O=C(c1ccc[nH]1)N1CCc2nnc(Cn3cccn3)n2CC1`, the cytotoxicity at 70.5 h is -2.61%.

Turning to `Fc1ccccc1-c1nc(CNCCn2cccn2)cs1`, the cytotoxicity at 70.5 h was -3.88%. For `CN1CCOC(CNCc2nc(-c3ccccc3)cs2)C1` (stereo unspecified), the cytotoxicity at 70.5 h was found to be 9.31%. For `Cn1nc(CN2CCCCC2)c2c1CN(C(=O)Nc1cccc(F)c1)C2` the value was 11.6%; for `CN1CCN(Cc2cn3c(n2)CN(Cc2ccccn2)CC3)CC1`, -9.35%; for `N#Cc1cc(NC(=O)c2ccsc2)ccc1N1CCC(O)CC1`, -11.8%.

On to `CCN(C(=O)CN1CCn2c(nnc2C2CC2)C1)C1=CCCCC1`, for which the cytotoxicity at 70.5 h is -14.8%. Take `COC(=O)c1cc(C(=O)N2CCCC(C)C2)n(-c2ccccc2)n1` (stereo unspecified): the cytotoxicity at 70.5 h was -10.2%.

With `Cc1cc(C)c2ncc(C#N)c(NC3CCN(CC(N)=O)CC3)c2c1`, the cytotoxicity at 70.5 h is 1.44%. With `O=C(c1ccnnc1)N1CC2(CCN(c3ncccn3)C2)C1`, the cytotoxicity at 70.5 h was -5.07%.

For `CCc1nc(C(=O)N(CC)CC(=O)Nc2cc(Cl)ccc2C)c[nH]1`, the cytotoxicity at 70.5 h is -4.72%. Consider `Cc1nc(N2CCC(CC(=O)N3CCCC3)CC2)c2cnn(C)c2n1`, for which the cytotoxicity at 70.5 h is -3.28%. Consider `CNc1nc(CNC(=O)Nc2ccccc2C(F)(F)F)cs1`, for which the cytotoxicity at 70.5 h was -2.38%. As to `Cc1ncc(Cl)c(C(=O)N2CCCC(n3nc(C)nc3C)C2)n1` (stereo unspecified), the cytotoxicity at 70.5 h was -6.14%.

On to `Cc1ccc2c(c1)OCCN2C(=O)c1ccc(=O)n(C)c1`, for which the cytotoxicity at 70.5 h is -5.4%. In the case of `CC(C)c1nnc2n1CCN(c1nn3cc(C(C)(C)C)nc3s1)C2`, the cytotoxicity at 70.5 h was -8.04%. As for `O=C(c1csnn1)N1CCc2ccccc21`, the cytotoxicity at 70.5 h stood at 2.68%.

Turning to `CCCS(=O)(=O)N1CC(=O)N(CCCc2ccccc2)CC(O)C1` (stereo unspecified), the cytotoxicity at 70.5 h turned out to be 10.8%. `COc1ccccc1NC(=O)c1cnc(C2CCN(C(C)=O)C2)nc1C` (stereo unspecified): the cytotoxicity at 70.5 h is -1.01%. In the case of `CC(NCc1ccc(C(N)=O)cc1)c1ccc(Cl)c(Cl)c1` (stereo unspecified), the cytotoxicity at 70.5 h was -11.9%.

As to `Cc1cc(C(=O)N2CCC3(CCN3Cc3ccc(F)cc3)C2)no1` (stereo unspecified), the cytotoxicity at 70.5 h was -3.92%.

Take `Cc1noc2nc(C3CCCN(Cc4cccnc4)C3)cc(C(F)F)c12` (stereo unspecified): the cytotoxicity at 70.5 h is -3.71%. For `COCCn1ccc2c(NC(=O)c3n[nH]c4c3CCCC4)cccc21`, the cytotoxicity at 70.5 h was found to be 7.53%. As for `Cc1nnc(CN2CCCC2c2ccc3c(c2)OCCO3)n1C` (stereo unspecified), the cytotoxicity at 70.5 h is -3.49%. Consider `Cn1cc(-c2cnc(N3CCOCC3)nc2)cc1C(=O)O`, for which the cytotoxicity at 70.5 h is -2.63%. With `CN1CCN(Cc2noc(CC3CCc4ccccc43)n2)CC1` (stereo unspecified) the figure was -7.61%; with `OC[C@@H](O)CN(CCC(F)(F)F)c1ncc(Br)cn1`, 14.1%. For `O=C(Nc1nc2c(s1)CN(S(=O)(=O)C1CC1)CC2)c1ccc(=O)[nH]c1` the value was -10.9%; for `COc1cccc(CN(C)Cc2ccc(C#N)cc2)c1OC`, -1.54%; for `CC(C)Cc1nc(CSCC(=O)N2CCC(C)CC2)no1`, 3.72%. Consider `Cc1ccc(N2CCN(C(=O)C3CN(C)C(=O)N3)CC2=O)cc1` (stereo unspecified), for which the cytotoxicity at 70.5 h came to 3.04%. With `CCOc1ccc(C(=O)CCC(=O)NCc2csc(N)n2)cc1C` the figure was -11.5%. As to `COc1ccnc(N2CCN(C(=O)c3cnn(C)c3C3CC3)CC2)n1`, the cytotoxicity at 70.5 h is -6.28%. For `O=C(NCC1CCOCC1)c1cc(-c2ccc3c(c2)CCO3)n[nH]1` the value was 17.3%; for `CCc1c(C)nn2c(O)cc(C3CCN(C(=O)c4cnn(C)c4)C3)nc12` (stereo unspecified), -0.531%; for `CC1(C)CC(N2Cc3nc(N4CCCC4)ncc3C2=O)CC(C)(C)N1`, -13.5%. Consider `CC1(Cc2ccc3c(c2)OCO3)CCCN(S(=O)(=O)N2CCOCC2)C1` (stereo unspecified), for which the cytotoxicity at 70.5 h is -6.32%. With `CC(C)CN1CCN(C)C2(CCN(Cc3ccsc3)CC2)C1=O` the figure was 0.403%; with `COCc1nn(Cc2ccc(Br)s2)c(=O)o1`, -9.84%. `c1coc(-c2noc(CN3CC(n4cccn4)C3)n2)c1`: the cytotoxicity at 70.5 h was -7.3%.

As to `COc1cccc(CN2CCc3nc(C(N)=O)sc3CC2)c1`, the cytotoxicity at 70.5 h is -7.05%. For `Cn1c(C(N)=O)cc2c1CN(C(=O)C1CC(=O)N(C(C)(C)C)C1)CC2` (stereo unspecified) the value was -2.03%. Take `O=C(CCn1ccc2ccc(F)cc21)/N=c1\[nH]nc(C2CCCO2)s1` (stereo unspecified): the cytotoxicity at 70.5 h is -20.2%. For the compound `COc1ccccc1CN1CC(OC)CN(C(=O)CC(C)C)CC1=O` (stereo unspecified), the cytotoxicity at 70.5 h is -5.03%.

On to `CC(C(=O)Nc1ccc(C#N)cc1)N1CCc2ccccc21` (stereo unspecified), for which the cytotoxicity at 70.5 h came to 43.4%. Regarding `NCC1Cc2cc(Cl)cc(-c3cncc(C(=O)N4CCCCC4)n3)c2O1` (stereo unspecified), the cytotoxicity at 70.5 h is -6.78%. For the compound `CC(NC(=O)c1ccc(=O)n(C)c1)c1ccccc1-n1cccn1` (stereo unspecified), the cytotoxicity at 70.5 h is -19.9%. `Cc1ncc(CC(=O)N2CCC3(CCC(=O)N(C4CC4)C3)CC2)c(=O)[nH]1`: the cytotoxicity at 70.5 h was found to be 5.88%. For `Cc1ccc(C(=O)NCc2ccnc(N3CCN(C)CC3)c2)cn1`, the cytotoxicity at 70.5 h was -10%. In the case of `Cc1ccc(CNS(=O)(=O)CCCC#N)cc1F`, the cytotoxicity at 70.5 h is -4.22%. Turning to `CS(=O)(=O)c1cnc(N2CCCC2)nc1C1CCN(C(=O)C2CC2)CC1`, the cytotoxicity at 70.5 h turned out to be 0.997%. In the case of `Cc1nc(C)n(C2CCCN(C(=O)c3cn4cccnc4n3)C2)n1` (stereo unspecified), the cytotoxicity at 70.5 h was 2.73%.

Take `Cc1ncc(C(=O)NCCNc2ncccc2C#N)s1`: the cytotoxicity at 70.5 h is -0.109%.
